Experimental findings from patent publication US9334269B2, “Carboxamides as inhibitors of voltage-gated sodium channels” (AMGEN INC., priority 2010, dated 2016) are described below.

As usually defined, the IC50 is the concentration needed to halve the response being measured.

For the first test, the target named is T1, human Nav1.7 (hNav1.7) (Homo sapiens, UniProt Q15858).
T1 construct: expressed in transfected cells
T1 sequence (Q15858 whole entry): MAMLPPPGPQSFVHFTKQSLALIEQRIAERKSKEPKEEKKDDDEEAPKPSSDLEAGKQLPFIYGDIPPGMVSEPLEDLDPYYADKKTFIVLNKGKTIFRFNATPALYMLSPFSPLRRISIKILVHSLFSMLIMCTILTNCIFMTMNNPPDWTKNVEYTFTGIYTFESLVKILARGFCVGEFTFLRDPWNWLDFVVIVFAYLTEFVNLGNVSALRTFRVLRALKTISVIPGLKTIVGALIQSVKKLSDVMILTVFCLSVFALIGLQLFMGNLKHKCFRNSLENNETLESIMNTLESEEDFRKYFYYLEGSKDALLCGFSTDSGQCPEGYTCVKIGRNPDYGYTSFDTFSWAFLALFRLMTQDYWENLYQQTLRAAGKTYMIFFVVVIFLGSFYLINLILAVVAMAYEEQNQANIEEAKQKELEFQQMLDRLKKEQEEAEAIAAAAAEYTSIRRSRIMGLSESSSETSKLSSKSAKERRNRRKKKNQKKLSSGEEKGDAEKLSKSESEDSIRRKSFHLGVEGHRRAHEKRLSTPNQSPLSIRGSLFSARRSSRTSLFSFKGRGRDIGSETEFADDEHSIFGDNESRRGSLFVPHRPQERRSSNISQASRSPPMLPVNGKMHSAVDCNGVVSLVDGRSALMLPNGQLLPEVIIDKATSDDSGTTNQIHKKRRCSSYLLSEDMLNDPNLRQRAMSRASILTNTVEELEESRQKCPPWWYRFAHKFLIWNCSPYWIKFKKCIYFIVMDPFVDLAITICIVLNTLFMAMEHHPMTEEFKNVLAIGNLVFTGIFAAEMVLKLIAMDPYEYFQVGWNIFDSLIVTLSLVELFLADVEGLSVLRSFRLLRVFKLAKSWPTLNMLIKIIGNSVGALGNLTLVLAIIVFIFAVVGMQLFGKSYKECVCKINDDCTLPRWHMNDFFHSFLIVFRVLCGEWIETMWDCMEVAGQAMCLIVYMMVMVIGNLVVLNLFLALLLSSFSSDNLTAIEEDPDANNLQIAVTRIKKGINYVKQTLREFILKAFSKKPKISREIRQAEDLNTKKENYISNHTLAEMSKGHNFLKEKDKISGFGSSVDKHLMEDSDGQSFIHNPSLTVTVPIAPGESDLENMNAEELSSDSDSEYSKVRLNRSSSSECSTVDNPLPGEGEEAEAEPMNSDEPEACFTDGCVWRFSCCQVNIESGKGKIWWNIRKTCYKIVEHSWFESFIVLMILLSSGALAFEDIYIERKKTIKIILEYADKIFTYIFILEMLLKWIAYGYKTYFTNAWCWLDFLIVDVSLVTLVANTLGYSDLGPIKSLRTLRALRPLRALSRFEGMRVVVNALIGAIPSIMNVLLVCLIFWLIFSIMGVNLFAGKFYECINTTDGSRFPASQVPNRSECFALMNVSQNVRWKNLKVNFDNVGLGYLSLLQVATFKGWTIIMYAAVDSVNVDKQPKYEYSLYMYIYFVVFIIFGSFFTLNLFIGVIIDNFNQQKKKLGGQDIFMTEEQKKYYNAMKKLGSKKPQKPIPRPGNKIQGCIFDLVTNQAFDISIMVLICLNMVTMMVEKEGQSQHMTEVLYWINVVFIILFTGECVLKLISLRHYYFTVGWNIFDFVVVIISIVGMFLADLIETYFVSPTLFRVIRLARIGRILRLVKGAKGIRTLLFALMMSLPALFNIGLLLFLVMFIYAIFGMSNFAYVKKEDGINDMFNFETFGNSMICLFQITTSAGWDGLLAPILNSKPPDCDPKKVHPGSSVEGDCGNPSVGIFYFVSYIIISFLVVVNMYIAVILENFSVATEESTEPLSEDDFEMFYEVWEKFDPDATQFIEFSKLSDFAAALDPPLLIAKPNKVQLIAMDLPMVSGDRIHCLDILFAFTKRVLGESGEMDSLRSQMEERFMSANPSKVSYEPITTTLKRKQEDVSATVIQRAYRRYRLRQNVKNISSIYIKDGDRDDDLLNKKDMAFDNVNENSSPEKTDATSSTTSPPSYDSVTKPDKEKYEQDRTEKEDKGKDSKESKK
In words: hNav1.7 whole-cell patch-clamp electrophysiology (automated PatchXpress 7000A or manual) in stably expressing 293 cells. The format is cell-based. Conditions: average IC50. The protocol:
Compounds were tested on human Nav1.7 (hNav1.7) expressed stably in 293 cells, which have no endogenous sodium channels. Two forms of whole-cell patch-clamp assays were used. In both, peak current through Nav1.7 was evoked by a depolarizing voltage pulse, and currents were monitored as a function of time in response to exposure to several different concentrations of drug. Automated electrophysiology uses the PatchXpress 7000A system. Up to sixteen cells at a time were voltage-clamped in parallel, and the steady-state voltage dependence of inactivation was determined experimentally for each cell. For each cell, fractional inactivation was set at 20%, and peak current through Nav1.7 as a function of time was measured in response to increasing concentrations of test compound. Manual electrophysiology refers to conventional whole-cell patch-clamping (Hamill et al., 1981). After formation of the whole-cell clamp, cells were lifted off the bottom of the dish with the patch pipette and positioned directly in front of an array of glass microperfusion tubes each with internal diameter about 250 microns, with individual compound concentrations flowing from each tube. Current as a function of time in response to increasing drug concentrations was measured with Nav1.7 fully in the resting state (holding voltage set to −140 mV) and on the same cells with the holding voltage set to produce about 20% inactivation. Compounds were not applied for a prespecified time, but for as long as required to achieve a stable level of block. For both forms of electrophysiology, offline analysis was used to correct for rundown of channel current and to determine percent inhibition as a function of drug concentration. IC50 were determined by fitting to the Hill equation.
For orientation: Patch clamp records ionic current or voltage across a cell membrane.
In the case of `CNC(=O)c1cccc(Nc2ncnc(N3CC(Oc4ccc(C5CCCC5)cc4)C3)n2)c1` [Example 264], inhibition was half-maximal at 18.9 µM (IC50). Regarding `NC(=O)c1cc(Nc2ncnc(N3CC(Oc4ccc(F)cc4)C3)n2)ccc1F` [Example 291], the IC50 is more than 30 µM. Still for that read-out and setting: in the case of `CNC(=O)c1cccc(Nc2ncnc(N3CCc4c(cnn4-c4ccccc4)C3)n2)c1` [Example 268] it was 20.9 µM. On the same count and under the same terms, in the case of `CNC(=O)c1cccc(Nc2ncnc(N3CCc4ccc(Cl)cc4C3)n2)c1` [Example 279] it was 26.4 µM; in that of `Cc1ccc(N2CCN(c3ncnc(Nc4ccc(F)c(C(N)=O)c4)n3)CC2)cc1C` [Example 295], more than 30 µM.

The same test, now with this note: average IC50, human Nav1.7.
For the compound `CNC(=O)c1cccc(Nc2ncnc(N3CC(COc4cccc5ccccc45)C3)n2)c1` [Example 253], half-maximal inhibition (IC50) was put at 15.2 µM. Compound `CNC(=O)c1cccc(Nc2ncnc(N3CC(Oc4cccc(C)c4)C3)n2)c1` [Example 49] came in with an IC50 of 0.65 µM.

`CNC(=O)c1cccc(Nc2ncnc(N3CCc4c(Cl)cccc4C3)n2)c1` [Example 142] yielded a 50% inhibitory concentration (IC50) of 2.8 µM. The same measure, in the same setting: in the case of `CNC(=O)c1cccc(Nc2ncnc(N3CCC(n4cc(-c5ccccc5Cl)cn4)CC3)n2)c1` [Example 190] it was 5.58 µM.

The compound `CNC(=O)c1cccc(Nc2ncnc(N3CCN(c4ccc(OC)cc4)CC3)n2)c1` [Example 159] yielded an IC50 of 3.5 µM.

Take `CNC(=O)c1cccc(Nc2ncnc(N3CCC(Oc4ccccc4OC(F)(F)F)CC3)n2)c1` [Example 209]: the 50% inhibitory concentration (IC50) was 8.15 µM.

Turning to `CNC(=O)c1cccc(Nc2ncnc(N3CC(Oc4ccc(CC#N)cc4)C3)n2)c1` [Example 207], half-maximal inhibition (IC50) was put at 7.98 µM.

In turn, `CNC(=O)c1cc(Nc2ncnc(N3CC(COc4ccc(Cl)cc4)C3)n2)ccc1Cl` [Example 90] gave an IC50 of 1.26 µM. Same read-out and setting: in the case of `CNC(=O)c1cccc(Nc2cccc(N3CC(Oc4ccc(F)cc4)C3)n2)c1` [Example 56] it was 0.75 µM; in that of `CNC(=O)c1cccc(Nc2ncnc(N3CCN(c4ccc(C(F)(F)F)cc4)CC3)n2)c1` [Example 74], 0.96 µM; in that of `CNC(=O)c1cccc(Nc2ncnc(N3CCC(Oc4ccc(Cl)c(F)c4)CC3)n2)c1` [Example 84], 1.08 µM. On the same count and under the same terms, in the case of `CNC(=O)c1cccc(Nc2ncnc(N3CC(Oc4cccc(Cl)c4)C3)n2)c1` [Example 25] it was 0.38 µM. Take `CNC(=O)c1ccc(F)c(Nc2ncnc(N3CC(Oc4ccc(F)cc4)C3)n2)c1` [Example 165]: half-maximal inhibition (IC50) was put at 3.82 µM. Same read-out and setting: in the case of `CNC(=O)c1cccc(Nc2ncnc(N3CC(Oc4ccc(C(F)(F)F)cc4Cl)C3)n2)c1` [Example 194] it was 5.97 µM. Take `CNC(=O)c1cccc(Nc2ncnc(N3CCC(Cc4ccc(F)cc4)CC3)n2)c1` [Example 196]: half-maximal inhibition (IC50) was put at 6.4 µM. Same read-out and setting: in the case of `CNC(=O)c1ccc(Cl)c(Nc2ncnc(N3CC(Oc4ccc(F)cc4)C3)n2)c1` [Example 129] it was 2.37 µM. With `CNC(=O)c1cccc(Nc2ncnc(N3CCN(c4cccc(F)c4)CC3)n2)c1` [Example 60], the IC50 turned out to be 0.79 µM. `CNC(=O)c1cccc(Nc2ncnc(N3CC(Oc4cccc(C(F)(F)F)c4)C3)n2)c1` [Example 62] came in with an IC50 of 0.82 µM. Still for that read-out and setting: in the case of `CNC(=O)c1cc(F)cc(Nc2ncnc(N3CCN(c4cccc(C)n4)CC3)n2)c1` [Example 116] it was 2 µM.

The same test, now with this note: human Nav1.7 stably expressed in 293 cells; whole-cell patch clamp; average IC50 from Hill fit.
Compound `CNC(=O)c1cccc(Nc2nccc(N3CC(Oc4ccc(F)cc4Cl)C3)n2)c1` [Example I, 3-((4-(3-(2-chloro-4-fluorophenoxy)-1-azetidinyl)-2-pyrimidinyl)amino)-N-methylbenzamide] showed a 50% inhibitory concentration (IC50) of 0.63 µM.

For the compound `CNC(=O)c1cccc(Nc2nccc(N3CCc4cc(OCC(F)(F)F)ccc4C3)n2)c1` [Example AI, N-methyl-3-((4-(6-(2,2,2-trifluoroethoxy)-3,4-dihydro-2(1H)-isoquinolinyl)-2-pyrimidinyl)amino)benzamide], the IC50 is 1.44 µM. As to `CNC(=O)c1cccc(Nc2nccc(N3CC(Oc4ccc(OC)cc4)C3)n2)c1` [Example D, 3-((4-(3-(4-methoxyphenoxy)-1-azetidinyl)-2-pyrimidinyl)amino)-N-methylbenzamide], the concentration for half-maximal inhibition (IC50) turned out to be 0.43 µM.
